Laboratory results as given in PubChem BioAssay (NCI).
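48-hour exposure; five concentrations; linearly interpolated endpoints. Abbreviation: GI50, concentration required for 50% inhibition of growth. Definition used: TGI = concentration required for complete inhibition of growth.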

How the values were obtained:
Test in all cases: inhibition of tumour cell growth, NCI panel, 48 h
HOP-92 NSCLC = test system: HOP-92 NSCLC
IGROV1 ovarian = test system: IGROV1 ovarian
K-562 leukemia = test system: K-562 leukemia
M14 melanoma = test system: M14 melanoma
MOLT-4 leukemia = test system: MOLT-4 leukemia
SK-OV-3 ovarian = test system: SK-OV-3 ovarian
SNB-75 CNS = test system: SNB-75 CNS
UACC-62 melanoma = test system: UACC-62 melanoma
MDA-MB-231 breast = test system: MDA-MB-231 breast
T-47D breast = test system: T-47D breast

CCOc1ccc(NC(=O)/C(CC(=O)c2c[n+](=O)c3ccccc3n2[O-])=N\OCCCc2ccccc2)cc1
TGI (HOP-92 NSCLC): 99.6 µM | TGI (IGROV1 ovarian): > 100 µM | TGI (K-562 leukemia): > 100 µM | TGI (M14 melanoma): > 100 µM | TGI (MOLT-4 leukemia): > 100 µM | TGI (SK-OV-3 ovarian): > 100 µM | TGI (SNB-75 CNS): > 100 µM | TGI (UACC-62 melanoma): > 100 µM

COc1ccc(-c2ccc(CC(=O)O)cc2)cc1OC
TGI (HOP-92 NSCLC): > 100 µM | TGI (K-562 leukemia): > 100 µM | TGI (M14 melanoma): > 100 µM | TGI (MOLT-4 leukemia): > 100 µM | TGI (SK-OV-3 ovarian): > 100 µM | TGI (SNB-75 CNS): > 100 µM | TGI (UACC-62 melanoma): > 100 µM

Cc1cccc(C)c1NC(=O)C(=O)Cc1nc2ccccc2s1
TGI (HOP-92 NSCLC): > 100 µM | TGI (IGROV1 ovarian): > 100 µM | TGI (K-562 leukemia): > 100 µM | TGI (M14 melanoma): > 100 µM | TGI (SK-OV-3 ovarian): > 100 µM | TGI (SNB-75 CNS): > 100 µM | TGI (UACC-62 melanoma): > 100 µM

O=C1NC(O)n2c(=O)[nH]c(=O)n21 (centres undefined)
TGI (HOP-92 NSCLC): > 100 µM | TGI (IGROV1 ovarian): > 100 µM | TGI (K-562 leukemia): > 100 µM | TGI (M14 melanoma): > 100 µM | TGI (MOLT-4 leukemia): > 100 µM | TGI (SK-OV-3 ovarian): > 100 µM | TGI (SNB-75 CNS): > 100 µM | TGI (UACC-62 melanoma): > 100 µM

Cc1cc(Cl)ccc1NC(=O)CCCC(=O)C1C/C(=N/O)CC/C1=N\O (centres undefined)
TGI (HOP-92 NSCLC): > 100 µM | TGI (IGROV1 ovarian): > 100 µM | TGI (K-562 leukemia): > 100 µM | TGI (M14 melanoma): > 100 µM | TGI (MOLT-4 leukemia): > 100 µM | TGI (SK-OV-3 ovarian): > 100 µM | TGI (SNB-75 CNS): > 100 µM | TGI (UACC-62 melanoma): > 100 µM

COc1cc(C)c2c(c1)CN1CN2Cc2cc(OC)cc(C)c21
TGI (HOP-92 NSCLC): > 100 µM | TGI (IGROV1 ovarian): > 100 µM | TGI (K-562 leukemia): > 100 µM | TGI (M14 melanoma): > 100 µM | TGI (MOLT-4 leukemia): > 100 µM | TGI (SK-OV-3 ovarian): > 100 µM | TGI (SNB-75 CNS): 46.3 µM | TGI (UACC-62 melanoma): 79 µM

COC(=O)C1CC(c2ccc(OC)c(OC)c2)OC1=O (mixture of isomers)
TGI (HOP-92 NSCLC): > 100 µM | TGI (IGROV1 ovarian): > 100 µM | TGI (K-562 leukemia): > 100 µM | TGI (M14 melanoma): > 100 µM | TGI (MOLT-4 leukemia): > 100 µM | TGI (SK-OV-3 ovarian): > 100 µM | TGI (SNB-75 CNS): > 100 µM | TGI (UACC-62 melanoma): > 100 µM

COc1cc2c(cc1OCCNC(=O)/C=C1\C[C@H]3C=Nc4cc(OCc5ccccc5)c(OC)cc4C(=O)N3C1)N=C[C@@H]1CCCN1C2=O
GI50 (IGROV1 ovarian): 1.42 µM | TGI (IGROV1 ovarian): 5.64 µM | GI50 (K-562 leukemia): 2780 nM | TGI (K-562 leukemia): 13.6 µM | GI50 (M14 melanoma): 10.4 µM | TGI (M14 melanoma): 28.8 µM | GI50 (MDA-MB-231 breast): 5.11 µM | TGI (MDA-MB-231 breast): 23.4 µM | GI50 (SK-OV-3 ovarian): 25.1 µM | TGI (SK-OV-3 ovarian): 73.1 µM | GI50 (T-47D breast): 2.77 µM | TGI (T-47D breast): 55.9 µM | GI50 (UACC-62 melanoma): 2650 nM | TGI (UACC-62 melanoma): 9.92 µM

CCCCCCCC/C=C/CCCCCCCC1=NC(C)(C)CN1C(C)(C)CO
GI50 (K-562 leukemia): 2120 nM | TGI (K-562 leukemia): 5.48 µM | GI50 (M14 melanoma): 1.78 µM | TGI (M14 melanoma): 3.22 µM | GI50 (MDA-MB-231 breast): 1.6 µM | TGI (MDA-MB-231 breast): 3.77 µM | GI50 (MOLT-4 leukemia): 2.62 µM | TGI (MOLT-4 leukemia): 5.81 µM | GI50 (SK-OV-3 ovarian): 14.4 µM | TGI (SK-OV-3 ovarian): 29.3 µM | GI50 (SNB-75 CNS): 1.89 µM | TGI (SNB-75 CNS): 5.77 µM | GI50 (T-47D breast): 3.39 µM | TGI (T-47D breast): 11.8 µM | GI50 (UACC-62 melanoma): 1820 nM | TGI (UACC-62 melanoma): 3.47 µM

COc1ccc(-c2ccc(C3CC(c4ccccc4)=NN3)o2)c([N+](=O)[O-])c1 (centres undefined)
GI50 (HOP-92 NSCLC): 24.8 µM | TGI (HOP-92 NSCLC): 68.2 µM | GI50 (IGROV1 ovarian): > 100 µM | TGI (IGROV1 ovarian): > 100 µM | GI50 (K-562 leukemia): 34500 nM | TGI (K-562 leukemia): > 100 µM | GI50 (M14 melanoma): 51.9 µM | TGI (M14 melanoma): > 100 µM | GI50 (MOLT-4 leukemia): 22.9 µM | TGI (MOLT-4 leukemia): 72.9 µM | GI50 (SK-OV-3 ovarian): 42.5 µM | TGI (SK-OV-3 ovarian): > 100 µM | GI50 (T-47D breast): > 100 µM | TGI (T-47D breast): > 100 µM | GI50 (UACC-62 melanoma): 67700 nM | TGI (UACC-62 melanoma): > 100 µM

Cc1nnc2n1N=C(c1ccccc1)C(c1ccccc1)S2 (centres undefined)
TGI (HOP-92 NSCLC): > 100 µM | TGI (IGROV1 ovarian): > 100 µM | TGI (K-562 leukemia): > 100 µM | TGI (M14 melanoma): 46.5 µM | TGI (MOLT-4 leukemia): > 100 µM | TGI (SK-OV-3 ovarian): 68.2 µM | TGI (SNB-75 CNS): 79.7 µM | TGI (UACC-62 melanoma): > 100 µM

C1=CC(=P(c2ccccc2)(c2ccccc2)c2ccccc2)C=C1
TGI (HOP-92 NSCLC): 22.8 µM | TGI (IGROV1 ovarian): 24.6 µM | TGI (K-562 leukemia): 11.3 µM | TGI (M14 melanoma): 24.3 µM | TGI (MOLT-4 leukemia): 23.4 µM | TGI (SK-OV-3 ovarian): 35.3 µM | TGI (SNB-75 CNS): 20.8 µM | TGI (UACC-62 melanoma): 20 µM

Cc1cccc(N2C(=O)/C(=C/C(Cl)=C/c3ccc([N+](=O)[O-])cc3)SC2=S)c1C
GI50 (K-562 leukemia): 793 nM | TGI (K-562 leukemia): > 100 µM | GI50 (M14 melanoma): 2.39 µM | TGI (M14 melanoma): 6.86 µM | GI50 (MDA-MB-231 breast): 2.2 µM | TGI (MDA-MB-231 breast): 5.52 µM | GI50 (MOLT-4 leukemia): 1.02 µM | TGI (MOLT-4 leukemia): > 100 µM | GI50 (SK-OV-3 ovarian): 4.93 µM | TGI (SK-OV-3 ovarian): > 100 µM | GI50 (T-47D breast): 2.7 µM | TGI (T-47D breast): > 100 µM | GI50 (UACC-62 melanoma): 1700 nM | TGI (UACC-62 melanoma): 3.86 µM

O=c1c(Cc2ccc3c(c2)OCO3)nnc2sc(-c3cc(F)c(Cl)cc3Cl)nn12
GI50 (HOP-92 NSCLC): 23 µM | TGI (HOP-92 NSCLC): 88.4 µM | GI50 (IGROV1 ovarian): 32.3 µM | TGI (IGROV1 ovarian): > 100 µM | GI50 (K-562 leukemia): 42800 nM | TGI (K-562 leukemia): > 100 µM | GI50 (M14 melanoma): > 100 µM | TGI (M14 melanoma): > 100 µM | GI50 (MDA-MB-231 breast): 44.9 µM | TGI (MDA-MB-231 breast): > 100 µM | GI50 (MOLT-4 leukemia): 36 µM | TGI (MOLT-4 leukemia): > 100 µM | GI50 (SNB-75 CNS): 28.5 µM | TGI (SNB-75 CNS): > 100 µM | GI50 (UACC-62 melanoma): 75800 nM | TGI (UACC-62 melanoma): > 100 µM

CSc1nc(Nc2cccc(NC(=O)CCl)c2)c(C#N)c(-c2cccc([N+](=O)[O-])c2)n1
GI50 (HOP-92 NSCLC): 1.92 µM | TGI (HOP-92 NSCLC): 7.07 µM | GI50 (IGROV1 ovarian): 0.214 µM | TGI (IGROV1 ovarian): 0.685 µM | GI50 (K-562 leukemia): 2280 nM | TGI (K-562 leukemia): > 100 µM | GI50 (M14 melanoma): 2.01 µM | TGI (M14 melanoma): 6.08 µM | GI50 (MDA-MB-231 breast): 2.39 µM | TGI (MDA-MB-231 breast): 10.7 µM | GI50 (MOLT-4 leukemia): 1.32 µM | TGI (MOLT-4 leukemia): 6.37 µM | GI50 (SK-OV-3 ovarian): 4.36 µM | TGI (SK-OV-3 ovarian): 17.3 µM | GI50 (SNB-75 CNS): 0.682 µM | TGI (SNB-75 CNS): 4.8 µM | GI50 (UACC-62 melanoma): 1350 nM | TGI (UACC-62 melanoma): 3.17 µM

Cc1cc2c(c(C(=O)O)c1C)-c1cccc(Cl)c1C2=O
TGI (IGROV1 ovarian): > 100 µM | TGI (K-562 leukemia): > 100 µM | TGI (M14 melanoma): > 100 µM | TGI (MOLT-4 leukemia): > 100 µM | TGI (SK-OV-3 ovarian): > 100 µM | TGI (SNB-75 CNS): > 100 µM | TGI (UACC-62 melanoma): > 100 µM

COc1ccc(-c2nc3ccccc3s2)cc1OC
TGI (HOP-92 NSCLC): > 100 µM | TGI (K-562 leukemia): > 100 µM | TGI (M14 melanoma): > 100 µM | TGI (MDA-MB-231 breast): > 100 µM | TGI (MOLT-4 leukemia): > 100 µM | TGI (SK-OV-3 ovarian): 62.9 µM | TGI (SNB-75 CNS): > 100 µM | TGI (UACC-62 melanoma): > 100 µM

c1cnc2c(c1)-n1cccc1C1(CCCCC1)NN2
TGI (K-562 leukemia): > 100 µM | TGI (M14 melanoma): > 100 µM | TGI (MOLT-4 leukemia): > 100 µM | TGI (SNB-75 CNS): > 100 µM

Cc1c(C)c([N+](=O)[O-])c2c(c1N)C(=O)c1ccccc1C2=O
TGI (HOP-92 NSCLC): > 100 µM | TGI (IGROV1 ovarian): > 100 µM | TGI (K-562 leukemia): > 100 µM | TGI (M14 melanoma): > 100 µM | TGI (MOLT-4 leukemia): > 100 µM | TGI (SK-OV-3 ovarian): > 100 µM | TGI (SNB-75 CNS): > 100 µM | TGI (UACC-62 melanoma): > 100 µM

CN1CCN(C2=NC(=O)/C(=C\c3ccc(N(C)C)cc3)S2)CC1
GI50 (IGROV1 ovarian): 72.5 µM | TGI (IGROV1 ovarian): > 100 µM | GI50 (K-562 leukemia): > 100000 nM | TGI (K-562 leukemia): > 100 µM | GI50 (M14 melanoma): 3.79 µM | TGI (M14 melanoma): > 100 µM | GI50 (MDA-MB-231 breast): 74.5 µM | TGI (MDA-MB-231 breast): > 100 µM | GI50 (MOLT-4 leukemia): 42.2 µM | TGI (MOLT-4 leukemia): > 100 µM | GI50 (SK-OV-3 ovarian): > 100 µM | TGI (SK-OV-3 ovarian): > 100 µM | GI50 (SNB-75 CNS): 48.2 µM | TGI (SNB-75 CNS): > 100 µM | GI50 (T-47D breast): 36.7 µM | TGI (T-47D breast): > 100 µM | GI50 (UACC-62 melanoma): 91700 nM | TGI (UACC-62 melanoma): > 100 µM
